Assay results reported in patent publication US20240199663A1, “Cyclopolyphosphazenes, Related Methods of Preparation and Methods of Use” (University of Saskatchewan, priority 2021, published 2024).

Experiments:
[1] = test system: SipD-antigen-specific IgG; test: Vaccination in chicken with SipD as an antigen, serum IgG ELISA; type: in vivo, Leghorn chicken; conditions: triple adjuvant composition (20 μg polyphosphazene: 40 μg IDR-1002: 20 μg Poly(I:C)) with 10 μg SipD, intramuscular, after two immunizations (Week 4), FIG. 1B
Experimental: To assess the adjuvant activity of cyclopolyphosphazene candidates, such as 37, 11 and 39, an in vivo study was conducted with intramuscular administration of a Salmonella typhimurium Cell invasion protein (SipD) vaccine in young chicken. Two-week-old Leghorn chicken were randomly divided into three single adjuvant groups, three triple adjuvant groups and one PBS-adjuvant control group (n=12/group). The single adjuvant groups contained 20 μg PCEP, 11 or 37 polyphosphazene. All triple adjuvants comprised Poly(I:C), IDR-1002 peptide and a polyphosphazene: either PCEP, 37 or 11.
All vaccines were formulated prior to administration and injected in 200 μL intramuscularly in the tail area. Chicken were vaccinated at Day 0 and Day 14 (Week 2) with the same dose. […]
Serum was collected on days 0, 14 and 28 for SipD-antigen-specific IgG ELISAs. […] Plates were read with a Molecular Devices SpectraMax Plus 384 Reader™. Data were expressed as titres, which represent the dilution factor required to generate an absorbance reading two standard deviations above the average value of the negative control, e.g. serum from control chicken receiving no vaccination.

antigen-specific IgG2a = test: Vaccination in mice with ovalbumin as an antigen, serum IgG2a ELISA; type: in vivo, Balb/c mice; conditions: triple adjuvant composition (10 μg polyphosphazene: 20 μg IDR-1002: 10 μg Poly(I:C)) with Ova 50 μg or 1 μg, intramuscular, after two immunizations (Week 8), FIGS. 3 and 5
Experimental: (§1) To assess the adjuvant activity of the cyclopolyphosphazene 37, four in vivo studies were conducted with intramuscular administration of an ovalbumin (Ova) vaccine in mice. In the first two studies, the Ova vaccine was either formulated with no adjuvant or with a triple adjuvant (TriAdj). The first two studies compared three different triple adjuvants, all comprising Poly(I:C), IDR-1002 peptide and a polyphosphazene: either PCEP, 37 or 11. The third and fourth studies compared four different triple adjuvants, all comprising Poly(I:C), IDR-1002 peptide and a polyphosphazene: either PCEP, compound 11, compound 37 or compound 39.
(§2) In all studies, mice were randomized to cages such that the various treatment groups were not together in the same cage. All groups received Ova antigen mixed with the adjuvant (or not) just prior to intramuscular administration. All the vaccines were formulated and injected in 50 μL (25 μ/leg). Mice were vaccinated at Day 0 and Day 28 (Week 4) with the same dose.
(§3) In all studies, serum was collected on days 0, 28 and 56 for antigen-specific IgG1 and IgG2a ELISAs. […] Plates were read with a Biorad iMark Microplate Reader™. Data were expressed as titres, which represent the dilution factor required to generate an absorbance reading three standard deviations above the average value of the negative control, e.g. serum from control mice receiving no vaccination. […]

antigen-specific IgG1 = test: Vaccination in mice with ovalbumin as an antigen, serum IgG1 ELISA; type: in vivo, Balb/c mice; conditions: triple adjuvant composition (10 μg polyphosphazene: 20 μg IDR-1002: 10 μg Poly(I:C)) with Ova 50 μg or 1 μg, intramuscular, after two immunizations (Week 8), FIGS. 2 and 5
Experimental: as §1, §2, §3

CCCCCCCCCCCC(=O)NCCCCCCNC(=O)C(CCCCN)NC(=O)CCc1ccc(OP2(Oc3ccc(CCC(=O)NC(CCCCN)C(=O)NCCCCCCNC(=O)CCCCCCCCCCC)cc3)=NP(Oc3ccc(CCC(=O)NC(CCCCN)C(=O)NCCCCCCNC(=O)CCCCCCCCCCC)cc3)(Oc3ccc(CCC(=O)NC(CCCCN)C(=O)NCCCCCCNC(=O)CCCCCCCCCCC)cc3)=NP(Oc3ccc(CCC(=O)NC(CCCCN)C(=O)NCCCCCCNC(=O)CCCCCCCCCCC)cc3)(Oc3ccc(CCC(=O)NC(CCCCN)C(=O)NCCCCCCNC(=O)CCCCCCCCCCC)cc3)=N2)cc1 (stereo not drawn) [Compound 37, N,N′,N″,N′″,N″″,N′″″-(((2,2′,2″,22′″,2″″,2′″″-((3,3′,3″,3′″,3″″,3′″″-(((1,3,5,2l5,4l5,6l5-triazatriphosphinine-2,2,4,4,6,6-hexayl)hexakis(oxy))hexakis(benzene-4,1-diyl))hexakis(propanoyl))hexakis(azanediyl))hexakis(6-aminohexanoyl))hexakis(azanediyl))hexakis(hexane-6,1-diyl))hexadodecanamide]
significantly greater response: antigen-specific IgG titres relative to a vaccine without adjuvant [1] | response in IgG2a relative to a vaccine without adjuvant (antigen-specific IgG2a) | response in IgG1 relative to a vaccine without adjuvant (antigen-specific IgG1)
